Source: the METLIN SMRT retention time set (Domingo-Almenara et al. 2019)

Assay: gradient 5% acetonitrile 3 min, to 50% in 2 min, to 85% in 15 min, held 3 min, 100 µL/min
Settings: column: Zorbax Extend-C18 2.1 x 50 mm; eluents: water / acetonitrile, 0.1% formic acid
Procedure, shortened: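 In both positive and negative ionization mode, a quadrupole time-of-flight mass spectrometer coupled to HPLC analyzed pure standards run in mixtures of ~100 molecules. The Zorbax Extend-C18 column (2.1 × 50 mm, 1.8 μm) was operated at 100 μL/min with water and acetonitrile, each containing 0.1% formic acid. The dead volume was 40 μL and the dwell volume 900 μL. Retention time came from adduct peaks that were computationally picked and individually inspected by hand.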

| Structure (SMILES) | RP-LC retention time [s] |
| --- | --- |
| C=CCN(C(=O)C1CCCN(c2ncnc3c2nc2n3CCCCC2)C1)c1ccccc1 (stereo not drawn) | 864 |
| COCCNc1ccc2nnc(C)n2n1 | 590 |
| C=CCn1c(=O)c2ccccc2n(Cc2nc(-c3ccccc3OCC)no2)c1=O | 1000 |
| Cc1csc(-c2cc(S(=O)(=O)N3CCN(c4ncccn4)CC3)c(C)n2C)n1 | 958 |
| Cc1noc(C2CN(C(=O)Nc3cc(Cl)ccc3C)CC23CCOCC3)n1 (stereo not drawn) | 760 |
| Cc1cccc(NC(=O)C2CCCN(c3nc4ccccc4nc3C(F)(F)F)C2)c1C (stereo not drawn) | 830 |
| COC(=O)Cn1c(=O)oc2cc(S(=O)(=O)N3CCN(c4ccccn4)CC3)ccc21 | 624 |
| COc1ccc(-c2noc(CN3N=NC4C(=O)N(c5ccc(F)cc5)C(=O)C43)n2)c(OC)c1 (stereo not drawn) | 1170 |
| COc1ccc(-c2cnn3c(C)cc(C)nc23)cc1S(=O)(=O)N1CCN(C2CCCCC2)CC1 | 690 |
| CC(=O)c1sc(Nc2nc3cc4c(cc3s2)OCO4)nc1C | 778 |
| Cc1ccc(-c2n[nH]c3c2CN(S(=O)(=O)c2cn(C)cn2)CC3)cc1 | 687 |
| O=C(NCc1ccccc1)C1CCN(S(=O)(=O)c2cc(C(=O)N3CCOCC3)cs2)CC1 | 694 |
| COc1ccc(-c2nc(C3CC(=O)N(c4ccc(F)c(Cl)c4)C3)no2)c(OC)c1 (stereo not drawn) | 1000 |
| CN(C)c1cc2c(cc1NC(=O)C1CC1)n(C)c(=O)c(=O)n2C | 608 |
| CCC(CC)C(=O)N1CCc2c(c(C(=O)N3CCCC(C(=O)Nc4ccccc4)C3)nn2C)C1 (stereo not drawn) | 761 |
| Cc1ccc(-n2c(=O)c3c(cc(C)n3C)n(CC(=O)Nc3ccc(Cl)cc3)c2=O)cc1 | 910 |
| CCCn1cc(CCNC(=O)c2ccc(Cl)cc2)c2cccnc21 | 821 |
| Cc1ccc(NC(=O)Cn2nc(N3CCSCC3)c3ccccc3c2=O)c(C)c1 | 940 |
| CCOC(=O)N1CCN(c2ncc3c(n2)CC(C)CC3=O)CC1 (stereo not drawn) | 842 |
| Cc1noc(COC2CCN(C(=O)CCc3c(C)noc3C)CC2)n1 | 661 |
| CC1CCN(S(=O)(=O)c2ccc(-c3nnc(C(=O)NCCCN4CCOCC4)o3)cc2)CC1 | 664 |
| COc1cccc(CNc2ncccc2-c2nnc(-c3ccccc3)o2)c1 | 1170 |

| Structure (SMILES) | RP-LC retention time [s] |
| --- | --- |
| COc1ccc(C(C)NC(=O)c2cn3nc(Cl)ccc3n2)cc1OC (stereo not drawn) | 755 |
| Cc1cc(N2CCN(C(=O)c3ccccc3F)CC2)nc(N2CCOCC2)n1 | 608 |
| CCN(C(=O)Nc1ccccc1[N+](=O)[O-])c1nc(-c2ccc(C)cc2)cs1 | 1410 |
| Cc1noc(C)c1S(=O)(=O)N1CCC[C@H](n2c(=O)n(C)c3cccnc32)C1 | 816 |
| CCN1C(=O)Cc2cc(C(=O)NCc3ccccc3)ccc21 | 706 |
| O=C(NCCc1cn2c(n1)SCC2)C(=O)Nc1ccc2c(c1)OCCO2 | 556 |
| CCOC(=O)C1=C(CN2CCCC2)NC(=O)NC1c1ccc(OC)cc1 (stereo not drawn) | 597 |
| CCCS(=O)(=O)N1CCCC(C)(C(=O)NCc2ccc(OC)cc2)C1 (stereo not drawn) | 798 |
| Cc1cc(=O)n(CC(=O)Nc2ccc(Br)cc2F)c(N2CCc3ccccc3C2)n1 | 953 |
| COc1ccc(-c2nsc(SCC(=O)N3CCCc4ccccc43)n2)cc1 | 1110 |
| O=C(Cn1nc(C(=O)N2CCCC2)c2ccccc21)NCCc1cccs1 | 775 |
| O=C(O)c1ccccc1SC1CC(=O)N(c2ccccc2OC(F)F)C1=O (stereo not drawn) | 741 |
| N#Cc1cc2c(nc1SCC(=O)N1CCOCC1)CCCCC2 | 891 |
| COCc1nc(CCNC(=O)NCC(C)C)no1 | 626 |
| CCn1cc(C2=CCN(C(=O)NCc3ccc(OC)cc3)CC2)c2cccnc21 | 858 |
| CN1C(=O)C2CCCCN2c2ccc(C(=O)NCCc3c[nH]c4ccc(Cl)cc34)cc21 (stereo not drawn) | 921 |
| CCCS(=O)(=O)c1nc2ccc(NS(=O)(=O)c3ccccc3)cc2s1 | 879 |
| O=C(C1CCN(S(=O)(=O)c2cc(-c3noc(C4CC4)n3)cs2)CC1)N1CCc2ccccc2C1 | 1020 |
| COc1cccc(CNC(=O)C2(C)CCCN(C(=O)Nc3ccc(C)cc3)C2)c1 (stereo not drawn) | 898 |
| Cc1c(F)cccc1NC(=O)N1CCCC(Cn2cnc3cccnc32)C1 (stereo not drawn) | 709 |
| COc1ccc(N2CCN(C(=O)c3cn4c(n3)CCCC4)CC2)cc1 | 574 |
| CN(c1ccc(F)cc1)S(=O)(=O)N1CCCC(C(=O)NCCc2c[nH]c3ccccc23)C1 (stereo not drawn) | 932 |

| Structure (SMILES) | RP-LC retention time [s] |
| --- | --- |
| O=C1CC(c2noc(-c3cc(F)ccc3F)n2)CN1c1ccc(F)c(Cl)c1 (stereo not drawn) | 1110 |
| CC1(C)CC(=O)c2cn(-c3ccc(F)cc3)c(=O)c(C(=O)Nc3ccc4c(c3)OCCO4)c2C1 | 1000 |
| CCS(=O)(=O)N1CCCc2cc(C(=O)NC3CCCC3)ccc21 | 837 |
| CCc1noc(COC2CCCN(C(=O)NCc3ccco3)C2)n1 (stereo not drawn) | 722 |
| CC1=C(C(=O)N(CC(=O)NCc2ccccc2)c2ccc(Cl)cc2)SCCO1 | 934 |
| COc1ccc(C)cc1NC(=O)N1CCC2(CC1)NC(=O)c1ccc(F)cc1N2C | 777 |
| Cc1cccc2nc(-c3ccc(N(C)C)cc3)c(Nc3ccc4c(c3)OCO4)n12 | 747 |
| O=C(Nc1ccccc1C(F)(F)F)N1CCC(N2CCN(Cc3ccc(F)cc3)C(=O)C2=O)CC1 | 752 |
| COc1ccc(-c2csc(Nc3ncccn3)n2)cc1OC | 824 |
| CN(C)c1cccc(-c2nn3c(CSc4ccccc4)nnc3s2)c1 | 1070 |
| Cc1cc(S(=O)(=O)N2CCOC23CCN(C(=O)C2CC2)CC3)ccc1F | 789 |
| CC1CCN(c2nn(CC(=O)Nc3ccc(F)cc3)c(=O)c3ccccc23)CC1 | 1120 |
| O=C(c1ccco1)N1CCCC1c1nc(-c2ccc(F)cc2)no1 (stereo not drawn) | 875 |
| Cc1ccnc(N2CCCC(C(=O)NCC3CCN(Cc4cccc(F)c4)CC3)C2)n1 (stereo not drawn) | 579 |
| COCc1cc2nn(CC(=O)NC3CCCC3)c(=O)n2c(-c2ccccc2)n1 | 727 |
| COc1cc(OC)c(NC(=O)N2CC(n3cnnc3-c3ccccc3)C2)cc1Cl | 703 |
| CCOC(=O)c1c(C)c(C(=O)CN(CC2CCCO2)C(=O)c2ccc(F)cc2)c(C)n1CC (stereo not drawn) | 973 |
| Cc1cccc(OCC(=O)N2CCN(c3cc(C)n4cnnc4n3)CC2)c1 | 621 |
| Cc1nc(N2CCCC2)c2c(C(=O)Nc3cccc(C)c3C)c(C)oc2n1 | 756 |
| CCc1cccc(C)c1Nc1c(-c2ccc(C)cc2)nc2nc(C)cc(C)n12 | 880 |
| CCOC(=O)CNC(=O)NCc1cccn1Cc1cc(C)ccc1C | 888 |
| Cn1ncc(NC(=O)c2ccc(Br)cc2)c(N2CCOCC2)c1=O | 814 |

| Structure (SMILES) | RP-LC retention time [s] |
| --- | --- |
| Cn1c(C2CCN(C(=O)Cc3ccc(Cl)cc3)C2)nc2ccncc21 (stereo not drawn) | 551 |
| N#CCN(c1ccc(F)cc1)S(=O)(=O)c1ccc2nncn2c1 | 669 |
| Cc1ccc(-c2noc(Cn3cnc4c(cnn4-c4ccccc4)c3=O)n2)cc1 | 1090 |
| O=C(Nc1nnc(C2=COCCO2)o1)c1cc2cc([N+](=O)[O-])ccc2s1 | 759 |
| COc1cccc(-c2nnc(SCC(=O)NCc3ccco3)n2-c2ccccc2)c1 | 739 |
| CC(=O)Nc1ccc(SCCCC(=O)Nc2ncc([N+](=O)[O-])s2)nn1 | 670 |
| CC1Oc2ccc(S(=O)(=O)N3CCC(C(=O)NCCc4ccccc4)CC3)cc2NC1=O (stereo not drawn) | 792 |
| CCOc1ccc(C(=O)N2CCc3c(c(-c4nc(C5CC5)no4)nn3C)C2)cc1 | 837 |
| COCCCn1c(=O)c2ccccc2n(Cc2nc(-c3ccc(OC)cc3OC)no2)c1=O | 884 |
| CC(=O)c1ccc(NC(=O)Cn2c(=O)n(-c3ccc(F)cc3)c(=O)c3c2cc(C)n3C)cc1 | 763 |
| CC(C)n1cc(S(=O)(=O)N2CCN(c3ccccc3)CC2)c2cccnc21 | 1070 |
| C/C(=C\C(=O)Nc1ccccc1C(=O)O)c1ccc2ccccc2c1 | 1150 |
| COCCC(=O)N1CCCCC1c1nncn1Cc1ccccc1 (stereo not drawn) | 643 |
| COc1ccccc1C(=O)N1CCC2(CC1)N=C(c1ccc(Cl)cc1)NO2 | 865 |
| CCOC(=O)COc1cc(-c2ccc(C)cc2)nc2ccc(NC(=O)C3CCC3)cc12 | 1060 |
| Cn1c(=O)sc2cc(S(=O)(=O)N3CCC(C(=O)Nc4ccccn4)CC3)ccc21 | 684 |
| COc1ccc(-c2nn3c(N4CCN(c5ccccn5)CC4)cc(C)nc3c2C)cc1 | 615 |
| CCCNC(=O)c1ccc(-c2ccc3c(c2)CCN3C(=O)CC)cc1 | 822 |
| COc1cc2c(cc1OC)C(C(=O)NCCCN1CCCC1)C(c1cccs1)N(C)C2=O (stereo not drawn) | 606 |
| COc1ccc(-c2cn3c(CC(=O)N4c5ccccc5CC4C)csc3n2)cc1OC (stereo not drawn) | 797 |
| COc1cc(F)ccc1-c1ccnc2ncnn12 | 681 |
| CCCCCNC(=O)C1CCCN(c2ncc(-c3ccc(F)cc3)cn2)C1 (stereo not drawn) | 1060 |
